According to ChEMBL document CHEMBL3885881, “DrugMatrix”:

Species on record: Rattus norvegicus
Assay: DrugMatrix - Regimen: Daily Repeat
Type: toxicity, organism-based, Sprague-Dawley
Parameters: regimen Daily Repeat, gender Male, age 6-8 weeks
Conditions: in vivo, po, route oral GAVAGE, vehicle .5 % CMC; for ABSOLUTE BASOPHIL / ABSOLUTE EOSINOPHIL / ABSOLUTE LYMPHOCYTE / ABSOLUTE MONOCYTE / ABSOLUTE SEGMENTED NEUTROPHIL / BASOPHIL / EOSINOPHIL / ERYTHROCYTE COUNT / HEMATOCRIT / HEMOGLOBIN / LEUKOCYTE COUNT / LYMPHOCYTE / MEAN CORPUSCULAR HEMOGLOBIN / MEAN CORPUSCULAR HEMOGLOBIN CONCENTRATION / MEAN CORPUSCULAR VOLUME / MONOCYTE / NEUTROPHIL / NUCLEATED RED BLOOD CELLS / PLATELET COUNT: tissue Blood; for ALANINE AMINOTRANSFERASE / ALBUMIN / ALKALINE PHOSPHATASE / ASPARTATE AMINOTRANSFERASE / BLOOD UREA NITROGEN / CARBON DIOXIDE / CHLORIDE / CHOLESTEROL / CREATINE PHOSPHOKINASE / CREATININE / GLUCOSE / LACTATE DEHYDROGENASE / LIPASE / PHOSPHORUS / POTASSIUM / SODIUM / TOTAL BILIRUBIN / TOTAL PROTEIN / URIC ACID: tissue Plasma
[1] = 0 mg/kg, 72 h, dose level Control, time 3 day
[2] = 0 mg/kg, 120 h, dose level Control, time 5 day
[3] = 100 mg/kg, 72 h, dose level Low, time 3 day

NC(=O)CN1CCCC1=O
ABSOLUTE BASOPHIL [1]: 0 CELLS/uL
ABSOLUTE EOSINOPHIL [1]: 0 CELLS/uL
ABSOLUTE LYMPHOCYTE [1]: 12191.17 CELLS/uL
ABSOLUTE MONOCYTE [1]: 183.17 CELLS/uL
ABSOLUTE SEGMENTED NEUTROPHIL [1]: 1192.33 CELLS/uL
BASOPHIL [1]: 0%
EOSINOPHIL [1]: 0%
ERYTHROCYTE COUNT [1]: 5.51 x10E6/uL
HEMATOCRIT [1]: 35.45%
HEMOGLOBIN [1]: 13.82 G/DL
LEUKOCYTE COUNT [1]: 13.57 x10E3/uL
LYMPHOCYTE [1]: 89.83%
MEAN CORPUSCULAR HEMOGLOBIN [1]: 25.1 pg
MEAN CORPUSCULAR HEMOGLOBIN CONCENTRATION [1]: 38.98 G/DL
MEAN CORPUSCULAR VOLUME [1]: 64.42 fL
MONOCYTE [1]: 1.33%
NEUTROPHIL [1]: 8.83%
NUCLEATED RED BLOOD CELLS [1]: 0 /100WBC
PLATELET COUNT [1]: 1118.17 x10E3/uL
ALANINE AMINOTRANSFERASE [1]: 55 u/L
ALBUMIN [1]: 4.15 G/DL
ALKALINE PHOSPHATASE [1]: 449.5 u/L
ASPARTATE AMINOTRANSFERASE [1]: 112.83 u/L
BLOOD UREA NITROGEN [1]: 17.33 mg/dL
CARBON DIOXIDE [1]: 29.5 mmol/L
CHLORIDE [1]: 101 MEQ/L
CHOLESTEROL [1]: 70 mg/dL
CREATINE PHOSPHOKINASE [1]: 1325.83 u/L
CREATININE [1]: 0.18 mg/dL
GLUCOSE [1]: 171.5 mg/dL
LACTATE DEHYDROGENASE [1]: 386 u/L
LIPASE [1]: 10 u/L
PHOSPHORUS [1]: 11.57 mg/dL
POTASSIUM [1]: 6.21 MEQ/L
SODIUM [1]: 141.65 MEQ/L
TOTAL BILIRUBIN [1]: 0.15 mg/dL
TOTAL PROTEIN [1]: 5.75 G/DL
URIC ACID [1]: 1.28 mg/dL
ABSOLUTE BASOPHIL [2]: 0 CELLS/uL
ABSOLUTE EOSINOPHIL [2]: 138.17 CELLS/uL
ABSOLUTE LYMPHOCYTE [2]: 13283.17 CELLS/uL
ABSOLUTE MONOCYTE [2]: 303.83 CELLS/uL
ABSOLUTE SEGMENTED NEUTROPHIL [2]: 1308.17 CELLS/uL
BASOPHIL [2]: 0%
EOSINOPHIL [2]: 1%
ERYTHROCYTE COUNT [2]: 5.32 x10E6/uL
HEMATOCRIT [2]: 33.8%
HEMOGLOBIN [2]: 13.63 G/DL
LEUKOCYTE COUNT [2]: 15.03 x10E3/uL
LYMPHOCYTE [2]: 88.33%
MEAN CORPUSCULAR HEMOGLOBIN [2]: 25.68 pg
MEAN CORPUSCULAR HEMOGLOBIN CONCENTRATION [2]: 40.35 G/DL
MEAN CORPUSCULAR VOLUME [2]: 63.67 fL
MONOCYTE [2]: 1.83%
NEUTROPHIL [2]: 8.83%
NUCLEATED RED BLOOD CELLS [2]: 0 /100WBC
PLATELET COUNT [2]: 1097.5 x10E3/uL
ALANINE AMINOTRANSFERASE [2]: 54.5 u/L
ALBUMIN [2]: 4.27 G/DL
ALKALINE PHOSPHATASE [2]: 337 u/L
ASPARTATE AMINOTRANSFERASE [2]: 94.67 u/L
BLOOD UREA NITROGEN [2]: 17 mg/dL
CARBON DIOXIDE [2]: 28.33 mmol/L
CHLORIDE [2]: 101.5 MEQ/L
CHOLESTEROL [2]: 71.33 mg/dL
CREATINE PHOSPHOKINASE [2]: 628.17 u/L
CREATININE [2]: 0.19 mg/dL
GLUCOSE [2]: 177.83 mg/dL
LACTATE DEHYDROGENASE [2]: 500.5 u/L
LIPASE [2]: 9.5 u/L
PHOSPHORUS [2]: 12.3 mg/dL
POTASSIUM [2]: 5.63 MEQ/L
SODIUM [2]: 143.03 MEQ/L
TOTAL BILIRUBIN [2]: 0.2 mg/dL
TOTAL PROTEIN [2]: 6.02 G/DL
URIC ACID [2]: 1.5 mg/dL
ABSOLUTE BASOPHIL [3]: 0 CELLS/uL
ABSOLUTE EOSINOPHIL [3]: 0 CELLS/uL
ABSOLUTE LYMPHOCYTE [3]: 10885.67 CELLS/uL
ABSOLUTE MONOCYTE [3]: 0 CELLS/uL
ABSOLUTE SEGMENTED NEUTROPHIL [3]: 981 CELLS/uL
BASOPHIL [3]: 0%
EOSINOPHIL [3]: 0%
ERYTHROCYTE COUNT [3]: 5.15 x10E6/uL
HEMATOCRIT [3]: 32.9%
HEMOGLOBIN [3]: 13.47 G/DL
LEUKOCYTE COUNT [3]: 11.87 x10E3/uL
LYMPHOCYTE [3]: 92%
MEAN CORPUSCULAR HEMOGLOBIN [3]: 26.17 pg
MEAN CORPUSCULAR HEMOGLOBIN CONCENTRATION [3]: 40.97 G/DL
MEAN CORPUSCULAR VOLUME [3]: 63.87 fL
MONOCYTE [3]: 0%
NEUTROPHIL [3]: 8%
NUCLEATED RED BLOOD CELLS [3]: 0 /100WBC
PLATELET COUNT [3]: 1222.67 x10E3/uL
ALANINE AMINOTRANSFERASE [3]: 51.33 u/L
ALBUMIN [3]: 4.07 G/DL
ALKALINE PHOSPHATASE [3]: 403 u/L
ASPARTATE AMINOTRANSFERASE [3]: 87.67 u/L
BLOOD UREA NITROGEN [3]: 15 mg/dL
CARBON DIOXIDE [3]: 25 mmol/L
CHLORIDE [3]: 102.33 MEQ/L
CHOLESTEROL [3]: 61 mg/dL
CREATINE PHOSPHOKINASE [3]: 556.33 u/L
CREATININE [3]: 0.2 mg/dL
GLUCOSE [3]: 204.67 mg/dL
LACTATE DEHYDROGENASE [3]: 170.67 u/L
LIPASE [3]: 10 u/L
PHOSPHORUS [3]: 13.13 mg/dL
POTASSIUM [3]: 5.4 MEQ/L
SODIUM [3]: 143.3 MEQ/L
TOTAL BILIRUBIN [3]: 0.1 mg/dL
TOTAL PROTEIN [3]: 5.5 G/DL
URIC ACID [3]: 1.8 mg/dL
